Test results taken from PubChem BioAssay (NCI).
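Following 48 hours of exposure in 96-well plates, responses at five concentrations were used to interpolate endpoints linearly. Abbreviation: GI50, concentration required for 50% inhibition of growth. TGI: concentration producing complete growth inhibition.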

Tests used:
Experiment in all cases: NCI-60 cell line screen, 48 h
ACHN renal = test system: ACHN renal
RXF 393 renal = test system: RXF 393 renal
SNB-19 CNS = test system: SNB-19 CNS
HOP-62 NSCLC = test system: HOP-62 NSCLC
NCI-H226 lung = test system: NCI-H226 lung
786-0 renal = test system: 786-0 renal
A498 renal = test system: A498 renal
NCI-H23 lung = test system: NCI-H23 lung
OVCAR-5 ovarian = test system: OVCAR-5 ovarian
CAKI-1 renal = test system: CAKI-1 renal

Compound: Cc1cc(OCc2ccc(C(F)(F)F)cc2)c2c(c1)C(=O)C=C(NCCN1CCCC1)C2=O
- GI50 (ACHN renal): 1.97 µM
- TGI (ACHN renal): 4.08 µM
- GI50 (RXF 393 renal): 1370 nM
- TGI (RXF 393 renal): 2.94 µM
- GI50 (SNB-19 CNS): 2.46 µM
- TGI (SNB-19 CNS): 6.2 µM
- GI50 (HOP-62 NSCLC): 3.44 µM
- TGI (HOP-62 NSCLC): 13.2 µM
- GI50 (NCI-H226 lung): 14.6 µM
- TGI (NCI-H226 lung): 35.2 µM
- GI50 (786-0 renal): 1600 nM
- TGI (786-0 renal): 2.99 µM
- GI50 (A498 renal): 2.69 µM
- TGI (A498 renal): 12.8 µM
- GI50 (NCI-H23 lung): 4.92 µM
- TGI (NCI-H23 lung): 18.7 µM
- GI50 (OVCAR-5 ovarian): 3.39 µM
- TGI (OVCAR-5 ovarian): 12.3 µM
- GI50 (CAKI-1 renal): 1.79 µM
- TGI (CAKI-1 renal): 4.83 µM

Compound: O=C1C=CC2C3C(=O)N(c4ccccc4)C(=O)C3C1N2Cc1ccccc1 (stereo unspecified)
- GI50 (ACHN renal): 3.36 µM
- TGI (ACHN renal): 7.61 µM
- GI50 (RXF 393 renal): 2420 nM
- TGI (RXF 393 renal): 6.53 µM
- GI50 (SNB-19 CNS): 6.04 µM
- TGI (SNB-19 CNS): 13.2 µM
- TGI (HOP-62 NSCLC): 5.26 µM
- TGI (NCI-H226 lung): 13.8 µM
- GI50 (786-0 renal): 1690 nM
- TGI (786-0 renal): 3.62 µM
- GI50 (A498 renal): 8.57 µM
- TGI (A498 renal): 22.8 µM
- GI50 (NCI-H23 lung): 5.37 µM
- TGI (NCI-H23 lung): > 48.3 µM
- GI50 (OVCAR-5 ovarian): 6.74 µM
- TGI (OVCAR-5 ovarian): 19.3 µM
- GI50 (CAKI-1 renal): 4.1 µM
- TGI (CAKI-1 renal): 8.15 µM

Compound: COC(=O)CC[C@@H](C)[C@H]1CC[C@H]2[C@@H]3CC[C@@H]4C[C@H](O)CC[C@]4(C)[C@H]3CC[C@]12C
- TGI (ACHN renal): 39.8 µM
- TGI (RXF 393 renal): 33 µM
- TGI (SNB-19 CNS): 44.9 µM
- TGI (HOP-62 NSCLC): 35.5 µM
- TGI (NCI-H226 lung): 36.6 µM
- TGI (786-0 renal): 33.8 µM
- TGI (A498 renal): 35.1 µM
- TGI (NCI-H23 lung): 32.9 µM
- TGI (OVCAR-5 ovarian): 35.6 µM
- TGI (CAKI-1 renal): 34.1 µM

Compound: C=CCC1(CN(C)C)CC/C(=C\c2ccc3c(c2)OCO3)C1=O (stereo unspecified)
- TGI (ACHN renal): > 100 µM
- TGI (RXF 393 renal): > 100 µM
- TGI (SNB-19 CNS): > 100 µM
- TGI (HOP-62 NSCLC): > 100 µM
- TGI (NCI-H226 lung): > 100 µM
- TGI (786-0 renal): > 100 µM
- TGI (A498 renal): > 100 µM
- TGI (NCI-H23 lung): > 100 µM
- TGI (OVCAR-5 ovarian): > 100 µM
- TGI (CAKI-1 renal): > 100 µM

Compound: COc1ccc2c3ccnc(C(F)(F)F)c3n(CCCCN)c2c1
- GI50 (ACHN renal): 4.58 µM
- TGI (ACHN renal): 16.1 µM
- GI50 (RXF 393 renal): 2300 nM
- TGI (RXF 393 renal): 6.93 µM
- GI50 (SNB-19 CNS): 12.2 µM
- TGI (SNB-19 CNS): 30.7 µM
- GI50 (HOP-62 NSCLC): 8.54 µM
- TGI (HOP-62 NSCLC): 21.3 µM
- GI50 (NCI-H226 lung): 7.42 µM
- TGI (NCI-H226 lung): 30.5 µM
- GI50 (786-0 renal): 7090 nM
- TGI (786-0 renal): 19.4 µM
- GI50 (A498 renal): 5.25 µM
- TGI (A498 renal): 18 µM
- GI50 (NCI-H23 lung): 8.65 µM
- TGI (NCI-H23 lung): 22.2 µM
- GI50 (OVCAR-5 ovarian): 8.62 µM
- TGI (OVCAR-5 ovarian): 22.4 µM
- GI50 (CAKI-1 renal): 4.66 µM
- TGI (CAKI-1 renal): 21.4 µM

Compound: Nc1nc(-c2ccc3c(c2)/C(=C\c2cc(Br)c(O)c(Br)c2)C(=O)N3)cs1
- GI50 (ACHN renal): > 23.9 µM
- TGI (ACHN renal): > 25 µM
- GI50 (RXF 393 renal): 12500 nM
- TGI (RXF 393 renal): > 25 µM
- GI50 (SNB-19 CNS): > 25 µM
- TGI (SNB-19 CNS): > 25 µM
- GI50 (HOP-62 NSCLC): > 17 µM
- TGI (HOP-62 NSCLC): > 25 µM
- GI50 (NCI-H226 lung): > 25 µM
- TGI (NCI-H226 lung): > 25 µM
- GI50 (786-0 renal): 14100 nM
- TGI (786-0 renal): > 25 µM
- GI50 (A498 renal): 5.57 µM
- TGI (A498 renal): 16.5 µM
- GI50 (NCI-H23 lung): 14.3 µM
- TGI (NCI-H23 lung): > 25 µM
- GI50 (OVCAR-5 ovarian): > 25 µM
- TGI (OVCAR-5 ovarian): > 25 µM
- GI50 (CAKI-1 renal): > 25 µM
- TGI (CAKI-1 renal): > 25 µM

Compound: Nc1nc2cc(Cl)ccc2n1N
- TGI (ACHN renal): > 100 µM
- TGI (RXF 393 renal): > 100 µM
- TGI (SNB-19 CNS): > 100 µM
- TGI (HOP-62 NSCLC): > 100 µM
- TGI (NCI-H226 lung): > 100 µM
- TGI (786-0 renal): > 100 µM
- TGI (A498 renal): > 100 µM
- TGI (NCI-H23 lung): > 100 µM
- TGI (OVCAR-5 ovarian): > 100 µM
- TGI (CAKI-1 renal): > 100 µM

Compound: COc1cccc(N2CC(O)=C(c3nc4ccccc4s3)C2=N)c1
- GI50 (ACHN renal): 0.307 µM
- TGI (ACHN renal): > 60.2 µM
- GI50 (RXF 393 renal): 488 nM
- TGI (RXF 393 renal): 45.1 µM
- GI50 (SNB-19 CNS): 0.702 µM
- TGI (SNB-19 CNS): > 100 µM
- GI50 (HOP-62 NSCLC): 0.56 µM
- TGI (HOP-62 NSCLC): 23.4 µM
- GI50 (NCI-H226 lung): 7.21 µM
- TGI (NCI-H226 lung): > 100 µM
- GI50 (786-0 renal): 363 nM
- TGI (786-0 renal): 37.1 µM
- GI50 (A498 renal): 0.33 µM
- TGI (A498 renal): 20 µM
- GI50 (NCI-H23 lung): 0.652 µM
- TGI (NCI-H23 lung): > 25.2 µM
- TGI (OVCAR-5 ovarian): > 95 µM
- GI50 (CAKI-1 renal): 0.11 µM
- TGI (CAKI-1 renal): > 100 µM

Compound: COc1cc2c(cc1OCC(=O)Nc1ccc(Cl)cc1C(=O)c1ccccc1Cl)N=CC1CCCN1C2=O (stereo unspecified)
- GI50 (ACHN renal): 11.5 µM
- TGI (ACHN renal): 23.8 µM
- GI50 (RXF 393 renal): 4310 nM
- TGI (RXF 393 renal): 15.6 µM
- GI50 (SNB-19 CNS): 14.9 µM
- TGI (SNB-19 CNS): 30.1 µM
- GI50 (HOP-62 NSCLC): 13.8 µM
- TGI (HOP-62 NSCLC): 28.6 µM
- GI50 (NCI-H226 lung): 17.6 µM
- TGI (NCI-H226 lung): 34.3 µM
- GI50 (786-0 renal): 12400 nM
- TGI (786-0 renal): 26 µM
- GI50 (A498 renal): 12.3 µM
- TGI (A498 renal): 24.9 µM
- GI50 (NCI-H23 lung): 13.6 µM
- TGI (NCI-H23 lung): 30.5 µM
- GI50 (OVCAR-5 ovarian): 24.6 µM
- TGI (OVCAR-5 ovarian): 45.5 µM
- GI50 (CAKI-1 renal): 13.6 µM
- TGI (CAKI-1 renal): 28.3 µM

Compound: CCC(O)CCCCCCCCCCCCCCC(=O)O (stereo unspecified)
- TGI (ACHN renal): > 100 µM
- TGI (RXF 393 renal): > 100 µM
- TGI (SNB-19 CNS): > 100 µM
- TGI (HOP-62 NSCLC): > 100 µM
- TGI (NCI-H226 lung): > 100 µM
- TGI (786-0 renal): > 100 µM
- TGI (A498 renal): > 100 µM
- TGI (NCI-H23 lung): > 100 µM
- TGI (OVCAR-5 ovarian): > 100 µM
- TGI (CAKI-1 renal): > 100 µM

Compound: COc1ccc(N=NC2=C(O)CCC2=O)cc1
- TGI (ACHN renal): > 100 µM
- TGI (RXF 393 renal): > 100 µM
- TGI (SNB-19 CNS): > 100 µM
- TGI (HOP-62 NSCLC): > 100 µM
- TGI (NCI-H226 lung): > 100 µM
- TGI (786-0 renal): > 100 µM
- TGI (A498 renal): > 100 µM
- TGI (NCI-H23 lung): > 100 µM
- TGI (OVCAR-5 ovarian): > 100 µM
- TGI (CAKI-1 renal): > 100 µM

Compound: CCN(CC)CCOc1nc2ccccc2c2c1-c1ccc(OC)cc1C2=O
- GI50 (ACHN renal): 0.364 µM
- TGI (ACHN renal): 2.02 µM
- GI50 (RXF 393 renal): 1630 nM
- TGI (RXF 393 renal): 4.44 µM
- GI50 (SNB-19 CNS): 0.788 µM
- TGI (SNB-19 CNS): 6.6 µM
- GI50 (HOP-62 NSCLC): 1.13 µM
- GI50 (NCI-H226 lung): 0.935 µM
- TGI (NCI-H226 lung): 4.42 µM
- GI50 (786-0 renal): 1170 nM
- TGI (786-0 renal): 2.68 µM
- GI50 (A498 renal): 0.728 µM
- TGI (A498 renal): 2.18 µM
- GI50 (NCI-H23 lung): 1.27 µM
- TGI (NCI-H23 lung): 4.07 µM
- GI50 (OVCAR-5 ovarian): 1.61 µM
- TGI (OVCAR-5 ovarian): 7.51 µM
- GI50 (CAKI-1 renal): 0.486 µM
- TGI (CAKI-1 renal): 3.66 µM

Compound: CC(C)N1CC2CC(CN(C(=O)c3ccc(Cl)cc3)C2)C1
- TGI (ACHN renal): > 100 µM
- TGI (RXF 393 renal): > 100 µM
- TGI (SNB-19 CNS): > 100 µM
- TGI (HOP-62 NSCLC): > 100 µM
- TGI (NCI-H226 lung): > 100 µM
- TGI (786-0 renal): > 100 µM
- TGI (A498 renal): > 100 µM
- TGI (NCI-H23 lung): > 100 µM
- TGI (OVCAR-5 ovarian): > 100 µM
- TGI (CAKI-1 renal): > 100 µM
